Test results published in patent US20220370453A1 (Storm Therapeutics Ltd, priority 2019, published 2022).

Experiments:
BCDIN3D [1] = molecular target: T1, BCDIN3D (Homo sapiens, UniProt Q7Z5W3); test: BCDIN3D IC50 RFMS (RapidFire) assay with mini-helix; type: biochemical; settings: 25 nM enzyme
T1 sequence (Q7Z5W3 1-292): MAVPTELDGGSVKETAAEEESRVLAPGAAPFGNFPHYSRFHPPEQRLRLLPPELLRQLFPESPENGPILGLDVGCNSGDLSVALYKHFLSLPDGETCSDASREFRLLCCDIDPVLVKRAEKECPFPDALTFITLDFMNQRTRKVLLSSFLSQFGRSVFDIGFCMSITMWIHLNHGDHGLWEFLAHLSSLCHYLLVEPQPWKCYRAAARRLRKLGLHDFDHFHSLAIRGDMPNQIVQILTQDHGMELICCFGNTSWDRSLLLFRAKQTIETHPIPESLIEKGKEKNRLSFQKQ
Procedure, shortened: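 SAH formation was measured by RapidFire mass spectrometry with D4- and 13C10-SAH internal standards after TCA quench. Substrates 6 μM SAM and 0.2 μM mini-helix reacted 1 h at 37 °C with 25 nM enzyme, which had been preincubated 10 min with compound (1% DMSO) in Tris pH 8.0 buffer with DTT, EDTA, BSA.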

BCDIN3D [2] = molecular target: T1, BCDIN3D; test: BCDIN3D InCellPulse thermal stability assay in transfected A549 cells; type: cell-based; settings: heat shock 58° C. 15 min
Procedure, shortened: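 Thermal stabilisation read-out: after a 15 min 58 °C heat shock, ePL-tagged BCDIN3D in transiently transfected A549 cells (1500/well) was quantified by enzyme-fragment complementation luminescence. Compounds were pre-incubated with cells 1 h at 37 °C, 0.6% DMSO final.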

[3] = mini-helix substrate 0.2 μM, SAM 6 μM
[4] = transiently transfected A549 cells

IC50 (BCDIN3D [1]; [3]) [nM] | IC50 (BCDIN3D [2]; [4]) [nM] | IC50 (BCDIN3D [1]; mini-helix 0.2 μM and SAM 6 μM as substrates, 1 hr at 37° C.) [nM] | IC50 (BCDIN3D [2]; A549 cells transiently transfected with ePL-BCDIN3D, 1 h pre-incubation) [nM] | SMILES
111 | 207 |  |  | Cn1ncc2c(NC34CC(c5ccccc5)(C3)C4)nc(NCC3(N)CC3)nc21 [Compound 2.18, N6-[(1-aminocyclopropyl)methyl]-1-methyl-N4-(1-phenyl-3-bicyclo[1.1.1]pentanyl)pyrazolo[3,4-d]pyrimidine-4,6-diamine]
332 | 1500 |  |  | CC(C)Oc1ccc(Nc2nc(NCC3(N)CC3)nc3c2cnn3C)cc1 [Compound 2.22, 6-N-[(1-aminocyclopropyl)methyl]-1-methyl-4-N-(4-propan-2-yloxyphenyl)pyrazolo[3,4-d]pyrimidine-4,6-diamine]
180 | 290 |  |  | C[C@@H](Nc1nc(NC[C@H](N)c2ccccc2)nc2c1cnn2C)C1CC1 [Compound 4.129, N6-[(2R)-2-amino-2-phenylethyl]-N4-[(1R)-1-cyclopropylethyl]-1-methyl-1H-pyrazolo[3,4-d]pyrimidine-4,6-diamine]
51.8 | 68.3 |  |  | C#Cc1cccc(C(N)CNc2nc(NC(C)(C)C)c3cnn(C)c3n2)c1 (stereo not shown) [Compound 5.05, N6-[2-Amino-2-(3-ethynylphenyl)ethyl]-N4-tert-butyl-1-methyl-pyrazolo[3,4-d]pyrimidine-4,6-diamine]
25.8 | 72 |  |  | Cn1ncc2c(NC3CC(Cl)(Cl)C3)nc(NC[C@H](N)c3ccccc3)nc21 [Compound 4.93, N6-[(2R)-2-amino-2-phenyl-ethyl]-N4-(3,3-dichlorocyclobutyl)-1-methyl-pyrazolo[3,4-d]pyrimidine-4,6-diamine]
252 | 1450 |  |  | Cn1ncc2c(NC3CC3(C)C)nc(NC[C@H](N)c3ccccc3)nc21 (stereo partly drawn) [Compound 4.120, N6-[(2R)-2-amino-2-phenyl-ethyl]-N4-(2,2-dimethylcyclopropyl)-1-methyl-pyrazolo[3,4-d]pyrimidine-4,6-diamine]
1440 | 1440 |  |  | CC[C@@H](CN)Nc1nc(NCc2ccc(C)c(Cl)c2)c2cnn(C)c2n1 [Compound 3.05]
1080 | 2430 |  |  | CCn1ncc2c(Nc3ccc(C(F)(F)F)cc3)nc(NCC3(N)CC3)nc21 [Compound 2.48, 6-N-[(1-aminocyclopropyl)methyl]-1-ethyl-4-N-[4-(trifluoromethyl)phenyl]pyrazolo[3,4-d]pyrimidine-4,6-diamine]
41.7 | 38.5 |  |  | Cn1ncc2c(NC(C)(C)C(F)(F)F)nc(NC[C@H](N)c3cccc(Br)c3)nc21 [Compound 5.16, N6-[(2R)-2-amino-2-(3-bromophenyl)ethyl]-1-methyl-N4-(2,2,2-trifluoro-1,1-dimethyl-ethyl)pyrazolo[3,4-d]pyrimidine-4,6-diamine]
374 | 456 |  |  | Cn1ncc2c(NC3CC4(COC4)C3)nc(NC[C@H](N)c3ccccc3)nc21 [Compound 4.95, N6-[(2R)-2-amino-2-phenyl-ethyl]-1-methyl-N4-(2-oxaspiro[3.3]heptan-6-yl)pyrazolo[3,4-d]pyrimidine-4,6-diamine]
59.1 | 473 |  |  | Cn1ncc2c(Nc3ccc(Cl)c(F)c3)nc(NCC3(N)CC3)nc21 [Compound 2.23]
 |  | 1150 | 8070 | COc1ccc(Nc2nc(NCCN)nc3c2cnn3C)cc1Cl [Compound 1.21, N6-(2-aminoethyl)-N4-(3-chloro-4-methoxyphenyl)-1-methyl-1H-pyrazolo[3,4-d]pyrimidine-4,6-diamine]
149 | 437 |  |  | Cn1ncc2c(NCC3CCC3(F)F)nc(NC[C@H](N)c3ccccc3)nc21 (stereo partly drawn) [Compound 4.106, N6-[(2R)-2-amino-2-phenyl-ethyl]-N4-[(2,2-difluorocyclobutyl)methyl]-1-methyl-pyrazolo[3,4-d]pyrimidine-4,6-diamine]
1010 | 1290 |  |  | Cc1nn(C)c2nc(NC[C@H](N)c3ccccc3)nc(NC(C)(C)C)c12 [Compound 4.128, N6-[(2R)-2-amino-2-phenylethyl]-N4-tert-butyl-1,3-dimethyl-1H-pyrazolo[3,4-d]pyrimidine-4,6-diamine]
